The numbers were not newly measured in patent US20240325474A1 (priority 2023, published 2024), which cites them from elsewhere.

One data set concerns SARS-COV-2. The note with it: Calu-3 cells.
Data set [1] concerns Calu-3 lung epithelia cell lines.

Each structure is given as a SMILES string. ≈ marks a conversion by molar mass, not a printed value.

For `C=C1CC[C@@H]2[C@](C)(CO)[C@H](O)CC[C@@]2(C)[C@@H]1C/C=C1/C(=O)OC[C@H]1O` [andrographolide], the IC50 in the data set on SARS-COV-2 was 34 nM. For the same compound, the cytotoxic concentration (CC50) in data set [1] is 58.03 µg/mL (≈ 166 µM).

One may read the IC50 as the midpoint of a concentration-inhibition curve. One may read the CC50 as the concentration that lowers cell viability or growth by half.
